Key:
[1] = tested on: PnsrR-GFP reporter construct; assay: Nitric oxide-inducible GFP reporter assay, fluorescence plate reader; format: cell-based, E. coli Nissle; conditions: NO donor DETA-NO, two-fold decreased across a range of concentrations; relative florescence units; FIG. 28
[2] = tested on: dipeptidyl peptidase IV (DPP-IV); conditions: cited from earlier work; for resistance to DPPIV mediated degradation / cleavage: short description of a known GLP-1R agonist in Table 10, in words
[3] = tested on: rat intestinal epithelial cells; conditions: cited from earlier work
[4] = tested on: Ptet-GFP reporter construct; assay: ATC-inducible GFP reporter assay, fluorescence plate reader; format: cell-based, E. coli Nissle; conditions: two-fold decreased inducer across a range of concentrations; relative florescence units; FIG. 28

## NCCN(CCN)/[N+]([O-])=N/O [NO, diethylenetriamine-nitric oxide adduct]
[1]
  induction of GFP expression in PnsrR-GFP reporter construct: able to induce the expression of GFP

## Dulaglutide
[2]
  resistance to DPPIV mediated degradation / cleavage: protection from DPPIV

## GLP-1(1-37): full-length form of GLP-1, SEQ ID NO: 73 (HDEFERHAEGTFTSDVSSYLEGQAAKEFIAWLVKGRG)
[3]
  effect on intestinal epithelial cells: stimulate rat intestinal epithelial cells to become glucose-responsive insulin-secreting cells

## GLP-1(7-37): circulating active form of GLP-1, SEQ ID NO: 75
[2]; blood
  biological half-life in blood: a few minutes

## GLP-1: glucagon-like peptide 1, produced by intestinal cells
[2]; rapid degradation catalyzed by DPP-IV
  stability: 3 to 5 min

## Taspoglutide
[2]
  resistance to DPPIV mediated degradation / cleavage: avoid degradation by DPPIV,

## anhydrous tetracycline [ATC]
[4]
  induction of GFP expression in Ptet-GFP reporter construct: able to induce the expression of GFP
